Key:
vesamicol receptor [1] = target: T1, vesamicol receptor (Tetronarce californica, UniProt P81721); assay: Binding affinities of aminoalcohols at the vesamicol receptor (purified cholinergic synaptic vesicles); set-up: species or system Torpedo californica
T1 construct: no ATP or acetylcholine
T1 sequence (P81721 1-515): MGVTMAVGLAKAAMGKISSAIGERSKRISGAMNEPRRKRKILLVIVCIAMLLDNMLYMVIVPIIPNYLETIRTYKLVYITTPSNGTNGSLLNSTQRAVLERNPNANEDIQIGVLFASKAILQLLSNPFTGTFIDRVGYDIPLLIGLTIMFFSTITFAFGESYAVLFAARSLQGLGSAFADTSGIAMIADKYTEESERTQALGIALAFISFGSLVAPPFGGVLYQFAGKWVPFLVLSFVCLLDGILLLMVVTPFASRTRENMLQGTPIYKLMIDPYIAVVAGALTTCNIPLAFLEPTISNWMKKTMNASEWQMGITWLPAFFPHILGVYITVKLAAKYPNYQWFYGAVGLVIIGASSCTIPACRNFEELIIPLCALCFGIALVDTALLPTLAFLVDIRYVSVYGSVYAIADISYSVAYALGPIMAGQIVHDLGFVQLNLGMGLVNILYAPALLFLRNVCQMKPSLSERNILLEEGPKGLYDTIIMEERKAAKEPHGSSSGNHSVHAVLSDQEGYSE
Protocol: The compounds were evaluated in a purified preparation of cholinergic synaptic vesicles isolated from the electric organ of Torpedo californica. A full description of this assay was described earlier. However, the present study was carried out in the absence of ATP and acetylcholine. […] Nonlinear regression analysis was carried out with MINSQ (MicroMath Scientific Software, Salt Lake City, Utah.). Protein content was determined by the method of Bradford, using a bovine serum albumin standard.
^a The compounds were tested as the corresponding hydrochlorides,
using highly purified synaptic vesicles obtained from the electric organ
of Torpedo Californica, following a procedure described earlier (8).

vesamicol receptor [2] = settings: rodent brain; cited from earlier work
vesamicol receptor [3] = assay: Blocking experiments: inhibition of radiotracer accumulation in the rat by coadministered compound; format: in vivo, rat (male Wistar); settings: rat
Method in brief: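 Male Wistar rats (n=3/group) got iv radiotracer, alone or coadministered with blocker (e.g. (+)/(−)-HBrPP·HCl 1.3 μmol/kg, vesamicol·HCl 1.1 μmol/kg, or 0.31–0.53 mg/kg in other series). Blood and tissues taken 60 min post-injection to assess radiotracer accumulation.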

vesamicol receptor [4] = assay: Ligand displacement studies in vivo; set-up: species or system rat (male Wistar); settings: rat, vesamicol iv 30 minutes after radiotracer
Protocol: To determine if vesamicol could displace bound [^125 I]5 in vivo, a blocking dose of vesamicol was injected intravenously 30 minutes following the administration of (-)-[^125 I]5.
Two groups of male Wistar rats (n=3) were used in this study. Each animal initially received, while under anesthesia, an iv dose of (-)-5, (9.5 μCi) in 0.1 ml of 50% aqueous ethanol. After 30 min. the control group received an iv dose of 50% aqueous ethanol (0.1 ml) while the second group received an iv dose of (dl)-vesamicol hydrochloride (1.1 μmol/kg) in 0.1 ml of 50% aqueous ethanol. All animals were sacrificed, as described above, at one hour following radiotracer injection. Data was analyzed as described above.

[5] = test system: vesicular acetylcholine storage; settings: cited from earlier work
[6] = test system: rodents and other laboratory animals; settings: cited from earlier work
vesamicol receptor [7] = settings: cited from earlier work
[8] = rat
Protocol: (§1) Four groups of male Wistar rats (with four animals per group) weighing 200-350 g were used in these experiments. Each animal received, while under ether anesthesia, an intravenous injection of the radiotracer (10-20 μCi) dissolved in 0.1 ml of 50% aqueous ethanol. At 5, 30, and 60 and 180 min. post-injection, blood was collected from the anesthetized animals by cardiac puncture, and the animal was immediately sacrificed by cardiectomy. The organs and tissues of interest were harvested, transferred to preweighed tubes and counted in a Beckman gamma counter. The tubes were subsequently reweighed to give the weight of the corresponding tissues. Preweighed tubes containing ^1 -ml samples of a 1:100 dilution of the injection dose were also counted and used as reference for calculating the tissue accumulation of radioactivity. The accumulation of radiotracer was expressed as a percentage of injected dose per gram of tissue.

[9] = Tissue distribution (biodistribution) of radioiodinated compound in the rat; settings: rat
Protocol: as §1

[10] = iv, 60 min, + (dl)-vesamicol HCl 0.3 (Table 3) or 0.31 mg/kg, 60 min
[11] = iv, 60 min, radiotracer only (control)

## OC(CN1CCC(c2ccccc2)CC1)c1ccc(Br)cc1 (racemic) [Compound 15i, (dl)-1-(4-Bromophenyl)-2-(4-phenylpiperidinyl)ethanol]
Vesamicol receptor [1]
  binding to the vesamicol receptor (in words): equipotent with (dl)-vesamicol

## O[C@@H]1CCCC[C@H]1N1CCC(c2ccccc2)CC1 (relative stereo) [[^3 H]vesamicol]
Vesamicol receptor [2]
  cortical [^3 H]vesamicol binding after lesioning a known cholinergic pathway: significant decrease
  distribution relative to other markers of cholinergic innervation: correlate well

## O[C@@H]1CCCC[C@H]1N1CCC(c2ccccc2)CC1 (relative stereo) [vesamicol, trans-2-(4-phenylpiperidino)cyclohexanol]
Vesamicol receptor [3]; vesamicol 1.1 μmol/kg, (+)-7 and (-)-7 1.3 μmol/kg, coadministered
  blocking of the accumulation of [^125 I]5 in vivo, relative potency: equipotent
Vesamicol receptor [4]
  displacement of bound (-)-[^125 I]5 radioactivity from brain or heart: fails to displace
Vesamicol receptor [4]; listed as (dl)-vesamicol
  displacement of bound (-)-[^125 I]5 radioactivity from brain or heart: can not readily displace
[5]
  inhibition of ACh uptake into cholinergic synaptic vesicles and of quantal release: inhibit both the uptake of ACh into cholinergic synaptic vesicles and quantal release
[6]
  respiratory paralysis and death: induces respiratory paralysis and death
Vesamicol receptor [7]
  dissociation from the receptor: dissociate too quickly
  reversibility of binding to the vesamicol receptor: binds reversibly

## OC(CN1CCC(c2ccccc2)CC1)c1ccc([125I])cc1 (single isomer, unassigned; (+)) [(+)-[^125 l]13] [1-(4-Iodophenyl)-2-(4-phenylpiperidinyl)ethanol]
Vesamicol receptor [3]; [10]
  Brain: Blood Ratio: 7.02
  Heart: Blood Ratio: 2.48
  radioactivity in blood: 0.03 % dose/g of tissue
Vesamicol receptor [3]; [11]
  Brain: Blood Ratio: 17.86
  Heart: Blood Ratio: 4.41
[8]
  efflux from the brain: much slower
[9]; 3 hours post-injection vs initial, listed as (+)[^123 I]13
  decrease of concentration in the brain: 35%
[9]; initial, listed as (+)-[^125 I]13
  initial accumulation in the rat brain: 2.75 % of the injected dose
[9]; iv, 5 min
  Brain: Blood Ratio: 14.8
  Heart: Blood Ratio: 13.8
[9]; iv, 60 min
  Brain: Blood Ratio: 41.7
  Heart: Blood Ratio: 8.2
  radioactivity in lung: 1.77 % dose/g
[9]; iv, 180 min
  Brain: Blood Ratio: 37.4
  Heart: Blood Ratio: 5.7
  radioactivity in blood: 0.02 % dose/g
  radioactivity in brain: 0.93 % dose/g
  radioactivity in heart: 0.14 % dose/g
  radioactivity in kidney: 1.53 % dose/g
  radioactivity in liver: 1.97 % dose/g
  radioactivity in lung: 0.62 % dose/g
  radioactivity in muscle: 0.13 % dose/g
  radioactivity in spleen: 0.77 % dose/g

## OC(Cc1cccc(I)c1)CN1CCC(c2ccccc2)CC1 (single isomer, unassigned; (+)) [Compound 15j, (+)-2-Hydroxyl-3-(3-iodophenyl)-1-[1-(4-phenylpiperidinyl)]propane]
Vesamicol receptor [1]; synaptic vesicles from electric organ of Torpedo californica, tested as hydrochloride
  Kd: 73 ± 11 nM

## OC(Cc1ccc(Br)cc1)CN1CCC(c2ccccc2)CC1 (single isomer, unassigned; (-)) [(-)-15a, 3-(4-Bromophenyl)-2-hydroxy-1-[1-(4-phenylpiperidinyl)]propane]
Vesamicol receptor [1]
  binding to the vesamicol receptor (in words): essentially equipotent with vesamicol
